In PubChem BioAssay AID256 (DTP/NCI, 2004):
Where “and” joins values, the source holds several entries; their conditions need not be identical. Identical values can stand only once. Toxic doses and inconclusive results are not listed.

Tested on: CD2F1 mice, L1210 leukemia ip, survival T/C
Assay: NCI In Vivo Anticancer Drug Screen. Data for tumor model L1210 Leukemia (intraperitoneal) in CD2F1 (CDF1) mice
Settings: higher = longer survival
Summary of the method: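 Vehicle-treated tumor-bearing mice served as controls (C) for compound-treated mice (T). Reported figure is T divided by C.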

[1] = endpoint: mean survival time, dose: 100.0 mg/kg/injection, schedule: Q01DX009 (ip), vehicle: saline
[2] = endpoint: mean survival time, dose: 200.0 mg/kg/injection, schedule: Q01DX009 (ip), vehicle: saline
[3] = endpoint: mean survival time, dose: 100.0 mg/kg/injection, schedule: Q04DX003 (ip), vehicle: saline with Tween-80
[4] = endpoint: mean survival time, dose: 200.0 mg/kg/injection, schedule: Q04DX003 (ip), vehicle: saline with Tween-80
[5] = endpoint: mean survival time, dose: 400.0 mg/kg/injection, schedule: Q04DX003 (ip), vehicle: saline with Tween-80

With C=C(NC(=O)C(=C)NC(=O)c1csc(C2=NC3c4csc(n4)C4NC(=O)c5csc(n5)C(C(C)(O)C(C)O)NC(=O)C5CSC(=N5)/C(=C/C)NC(=O)C(C(C)O)NC(=O)c5csc(n5)C3(CC2)NC(=O)C(C)NC(=O)C(=C)NC(=O)C(=C)NC(=O)C(C(C)C)NC2C=Cc3c(C(C)O)cc(nc3C2O)C(=O)OC4C)n1)C(N)=O (stereo not drawn) the T/C (endpoint: mean survival time, dose: 3.12 mg/kg/injection, schedule: Q01DX009 (ip), vehicle: saline) was 107 % of control, the T/C (endpoint: mean survival time, dose: 6.25 mg/kg/injection, schedule: Q01DX009 (ip), vehicle: saline) was 113 % of control and the T/C (endpoint: mean survival time, dose: 12.5 mg/kg/injection, schedule: Q01DX009 (ip), vehicle: saline) was 124 % of control and 108 % of control. The T/C (endpoint: mean survival time, dose: 25.0 mg/kg/injection, schedule: Q01DX009 (ip), vehicle: saline) was 113 % of control and 115 % of control, the T/C (endpoint: mean survival time, dose: 50.0 mg/kg/injection, schedule: Q01DX009 (ip), vehicle: saline) was 120 % of control and the T/C [1] was 113 % of control and 124 % of control. The T/C [2] was 124 % of control and 108 % of control.
With Cc1cc(=O)[nH]c2c(C)cc(Cl)cc12 the T/C [3] was 106 % of control, the T/C [4] was 109 % of control and the T/C [5] was 97 % of control.
With O=[N+]([O-])c1ccc(N=Cc2ccc3c(c2)OCO3)c(Br)c1 the T/C (endpoint: mean survival time, dose: 100.0 mg/kg/injection, schedule: Q01DX009 (ip), vehicle: Klucel (hydroxypropylcellulose) (HPC)) was 108 % of control, the T/C (endpoint: mean survival time, dose: 100.0 mg/kg/injection, schedule: Q04DX003 (ip), vehicle: other) was 108 % of control and the T/C (endpoint: mean survival time, dose: 200.0 mg/kg/injection, schedule: Q01DX009 (ip), vehicle: Klucel (hydroxypropylcellulose) (HPC)) was 109 % of control. For the same compound, the T/C (endpoint: mean survival time, dose: 200.0 mg/kg/injection, schedule: Q04DX003 (ip), vehicle: other) was 103 % of control, the T/C (endpoint: mean survival time, dose: 400.0 mg/kg/injection, schedule: Q01DX009 (ip), vehicle: Klucel (hydroxypropylcellulose) (HPC)) was 109 % of control and the T/C (endpoint: mean survival time, dose: 400.0 mg/kg/injection, schedule: Q04DX003 (ip), vehicle: other) was 103 % of control.
CC[C@@]1(OC(=O)CN2CCNCC2)C(=O)OCc2c1cc1n(c2=O)Cc2cc3ccccc3nc2-1 was tested, and the T/C (endpoint: median survival time, dose: 6.25 mg/kg/injection, schedule: Q04DX002 (ip), vehicle: water) was 106 % of control, the T/C (endpoint: median survival time, dose: 12.5 mg/kg/injection, schedule: Q04DX002 (ip), vehicle: water) was 116 % of control and the T/C (endpoint: median survival time, dose: 50.0 mg/kg/injection, schedule: Q04DX002 (ip), vehicle: water) was 153 % of control and 170 % of control. For the same compound, the T/C (endpoint: median survival time, dose: 100.0 mg/kg/injection, schedule: Q04DX002 (ip), vehicle: water) was 268 % of control.
For COC1=CC(=O)C=C(OC)C1=O, the T/C (endpoint: mean survival time, dose: 4.0 mg/kg/injection, schedule: Q01DX009 (ip), vehicle: saline) was 96 % of control, the T/C (endpoint: mean survival time, dose: 8.0 mg/kg/injection, schedule: Q01DX009 (ip), vehicle: saline) was 98 % of control and the T/C (endpoint: mean survival time, dose: 16.0 mg/kg/injection, schedule: Q01DX009 (ip), vehicle: saline) was 96 % of control.
Cc1cccc(Cl)c1NC(=O)C(C)N1CCCC1 (stereo not drawn) was tested, and the T/C (endpoint: mean survival time, dose: 12.5 mg/kg/injection, schedule: Q04DX003 (ip), vehicle: saline) was 100 % of control, the T/C (endpoint: mean survival time, dose: 25.0 mg/kg/injection, schedule: Q04DX003 (ip), vehicle: saline) was 107 % of control and the T/C (endpoint: mean survival time, dose: 50.0 mg/kg/injection, schedule: Q04DX003 (ip), vehicle: saline) was 104 % of control.
For CC(C)(C)C1(C#N)C(=O)C2CCCCC21 (stereo not drawn), the T/C (endpoint: mean survival time, dose: 12.5 mg/kg/injection, schedule: Q04DX002 (ip), vehicle: saline with Tween-80) was 105 % of control, the T/C (endpoint: mean survival time, dose: 25.0 mg/kg/injection, schedule: Q04DX002 (ip), vehicle: saline with Tween-80) was 97 % of control and the T/C (endpoint: mean survival time, dose: 50.0 mg/kg/injection, schedule: Q04DX002 (ip), vehicle: saline with Tween-80) was 94 % of control.
For CN(CCO)N=Nc1ccccc1, the T/C (endpoint: mean survival time, dose: 75.0 mg/kg/injection, schedule: Q01DX001 (ip), vehicle: saline) was 102 % of control and the T/C (endpoint: mean survival time, dose: 150.0 mg/kg/injection, schedule: Q01DX001 (ip), vehicle: saline) was 105 % of control.
For Clc1c(Cl)c(Cl)c(Cl)c(Cl)c1Cl, the T/C (endpoint: mean survival time, dose: 100.0 mg/kg/injection, schedule: Q01DX009 (ip), vehicle: saline with Tween-80) was 97 % of control, the T/C [3] was 97 % of control and the T/C (endpoint: mean survival time, dose: 200.0 mg/kg/injection, schedule: Q01DX009 (ip), vehicle: saline with Tween-80) was 100 % of control. The T/C [4] was 94 % of control, the T/C (endpoint: mean survival time, dose: 400.0 mg/kg/injection, schedule: Q01DX009 (ip), vehicle: saline with Tween-80) was 103 % of control and the T/C [5] was 102 % of control.
With CC1CC(C)(C)OC(C(C)(C)C)O1 (stereo not drawn) the T/C (endpoint: mean survival time, dose: 50.0 mg/kg/injection, schedule: Q04DX002 (ip), vehicle: saline) was 92 % of control, the T/C (endpoint: mean survival time, dose: 100.0 mg/kg/injection, schedule: Q04DX002 (ip), vehicle: saline) was 100 % of control and the T/C (endpoint: mean survival time, dose: 200.0 mg/kg/injection, schedule: Q04DX002 (ip), vehicle: saline) was 103 % of control.
For Cc1ccc(-c2csc(/N=C/c3ccccc3O)n2)cc1.Cc1ccc(-c2csc(/N=C/c3ccccc3O)n2)cc1.[Cu], the T/C (endpoint: mean survival time, dose: 25.0 mg/kg/injection, schedule: Q01DX001 (ip), vehicle: saline) was 91 % of control, the T/C (endpoint: mean survival time, dose: 50.0 mg/kg/injection, schedule: Q01DX001 (ip), vehicle: saline) was 96 % of control and the T/C (endpoint: mean survival time, dose: 100.0 mg/kg/injection, schedule: Q01DX001 (ip), vehicle: saline with Tween-80) was 86 % of control. For the same compound, the T/C (endpoint: mean survival time, dose: 100.0 mg/kg/injection, schedule: Q01DX001 (ip), vehicle: saline) was 87 % of control and the T/C (endpoint: mean survival time, dose: 400.0 mg/kg/injection, schedule: Q01DX001 (ip), vehicle: saline with Tween-80) was 93 % of control.
For CCCCC(C(=O)O)c1ccccc1 (stereo not drawn), the T/C [1] was 98 % of control, the T/C [2] was 98 % of control and the T/C (endpoint: mean survival time, dose: 400.0 mg/kg/injection, schedule: Q01DX009 (ip), vehicle: saline) was 101 % of control.
O=c1cc(O)c(Cl)n[nH]1 was tested, and the T/C (endpoint: mean survival time, dose: 25.0 mg/kg/injection, schedule: Q01DX009 (ip), vehicle: other) was 94 % of control, the T/C (endpoint: mean survival time, dose: 50.0 mg/kg/injection, schedule: Q01DX009 (ip), vehicle: other) was 94 % of control and the T/C (endpoint: mean survival time, dose: 100.0 mg/kg/injection, schedule: Q01DX009 (ip), vehicle: other) was 97 % of control. For the same compound, the T/C (endpoint: mean survival time, dose: 200.0 mg/kg/injection, schedule: Q01DX009 (ip), vehicle: other) was 92 % of control and the T/C (endpoint: mean survival time, dose: 400.0 mg/kg/injection, schedule: Q01DX009 (ip), vehicle: other) was 88 % of control.
With O=C1c2ccccc2C(=O)N1c1nc2ccccc2s1 the T/C (endpoint: mean survival time, dose: 100.0 mg/kg/injection, schedule: Q04DX002 (ip), vehicle: saline with Tween-80) was 96 % of control, the T/C (endpoint: mean survival time, dose: 200.0 mg/kg/injection, schedule: Q04DX002 (ip), vehicle: saline with Tween-80) was 89 % of control and the T/C (endpoint: mean survival time, dose: 400.0 mg/kg/injection, schedule: Q04DX002 (ip), vehicle: saline with Tween-80) was 100 % of control.
CC(C)=CC(=O)OC1C2C(C)=CC(=O)C(O)C2(C)C2C3(O)OCC24C(CC(=O)OC14)C(C)C3O (stereo not drawn) was tested, and the T/C (endpoint: mean survival time, dose: 0.25 mg/kg/injection, schedule: Q01DX009 (ip), vehicle: distilled water + Tween-80) was 110 % of control, the T/C (endpoint: mean survival time, dose: 0.5 mg/kg/injection, schedule: Q01DX009 (ip), vehicle: distilled water + Tween-80) was 124 % of control and the T/C (endpoint: mean survival time, dose: 1.0 mg/kg/injection, schedule: Q01DX009 (ip), vehicle: distilled water + Tween-80) was 112 % of control. The T/C (endpoint: mean survival time, dose: 2.0 mg/kg/injection, schedule: Q01DX009 (ip), vehicle: saline with Tween-80) was 151 % of control, the T/C (endpoint: median survival time, dose: 0.25 mg/kg/injection, schedule: Q01DX009 (ip), vehicle: distilled water + Tween-80 + alcohol) was 122 % of control and the T/C (endpoint: median survival time, dose: 0.5 mg/kg/injection, schedule: Q01DX009 (ip), vehicle: distilled water + Tween-80 + alcohol) was 124 % of control. The T/C (endpoint: median survival time, dose: 2.0 mg/kg/injection, schedule: Q01DX009 (ip), vehicle: distilled water + Tween-80 + alcohol) was 153 % of control.
